Like-named read-outs stand apart in the source and are kept apart here.
Target: EBOV VP40 (6xHis-VP40) (Ebola virus - Mayinga, Zaire, 1976, UniProt Q05128)
Assay: biochemical
Assay type: binding

Sequence of EBOV VP40 (6xHis-VP40) (Q05128 whole entry, looked up): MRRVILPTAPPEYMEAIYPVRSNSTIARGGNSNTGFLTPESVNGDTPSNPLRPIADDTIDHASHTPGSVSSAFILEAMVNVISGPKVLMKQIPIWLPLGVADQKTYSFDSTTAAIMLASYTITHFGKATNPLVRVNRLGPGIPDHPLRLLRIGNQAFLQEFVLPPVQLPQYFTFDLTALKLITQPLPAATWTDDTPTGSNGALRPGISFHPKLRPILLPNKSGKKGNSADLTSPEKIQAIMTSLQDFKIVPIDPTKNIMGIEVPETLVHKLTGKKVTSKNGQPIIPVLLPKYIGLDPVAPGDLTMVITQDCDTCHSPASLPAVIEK

Structure (SMILES)	Kd (read-out: Kd (apparent)) [nM]	Kd [nM]
CCCCCCCC/C=C\CCCCCCCC(=O)OC[C@H](COP(=O)(O)OC[C@H](N)C(=O)O)OC(=O)CCCCCCC/C=C\CCCCCCCC [DOPS]	311	
CCCCCCCCCCCCCCCC(=O)OCC(COP(=O)(O)OC[C@H](N)C(=O)O)OC(=O)CCCCCCCCCCCCCCC (stereo partly drawn) [DPPS]	10	
CCCCCCCC/C=C\CCCCCCCC(=O)O[C@H](COC(=O)CCCCCCCCCCCCCCC)COP(=O)(O)OC[C@H](N)C(=O)O [POPS]		186

From paper PMC11565396 (Journal of Lipid Research, 2024)
